In patent US20220267260A1, “COMPOUNDS CONTAINING A SULFONIC GROUP AS KAT INHIBITORS” (Epizyme, Inc., priority 2016, published 2022):

What was measured:
[1] = molecular target: T1, KAT6A (Homo sapiens, UniProt Q92794); assay: KAT6A enzyme inhibition assay (SAMDI mass spectrometry); type: biochemical; details: His-TEV-KAT6A 501-784 enzyme construct
T1 construct: His-TEV tag (N, cleaved yes); made in house

[2] = molecular target: T2, KAT5 (Homo sapiens, UniProt Q92993); assay: KAT5 enzyme inhibition assay (SAMDI mass spectrometry); type: biochemical; details: His-TEV-FL KAT5-Flag enzyme construct
T2 construct: His-TEV tag (N, cleaved yes); made in house
T2 sequence (Q92993 with tags, fused parts or gaps): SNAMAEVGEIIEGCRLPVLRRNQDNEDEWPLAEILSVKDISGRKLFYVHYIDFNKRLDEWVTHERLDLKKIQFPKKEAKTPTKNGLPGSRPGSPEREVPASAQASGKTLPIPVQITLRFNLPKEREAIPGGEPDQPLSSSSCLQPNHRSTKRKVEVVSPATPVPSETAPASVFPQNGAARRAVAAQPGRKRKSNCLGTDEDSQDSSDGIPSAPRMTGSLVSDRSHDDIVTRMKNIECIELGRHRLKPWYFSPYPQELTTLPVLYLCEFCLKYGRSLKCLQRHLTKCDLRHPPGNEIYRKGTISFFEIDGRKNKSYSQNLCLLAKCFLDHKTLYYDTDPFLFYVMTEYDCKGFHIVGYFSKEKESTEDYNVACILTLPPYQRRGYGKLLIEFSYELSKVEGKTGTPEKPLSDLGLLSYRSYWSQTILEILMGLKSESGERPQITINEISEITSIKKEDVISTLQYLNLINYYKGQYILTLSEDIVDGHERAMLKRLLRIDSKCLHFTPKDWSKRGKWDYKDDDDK

T1 sequence (Q92794 with tags, fused parts or gaps): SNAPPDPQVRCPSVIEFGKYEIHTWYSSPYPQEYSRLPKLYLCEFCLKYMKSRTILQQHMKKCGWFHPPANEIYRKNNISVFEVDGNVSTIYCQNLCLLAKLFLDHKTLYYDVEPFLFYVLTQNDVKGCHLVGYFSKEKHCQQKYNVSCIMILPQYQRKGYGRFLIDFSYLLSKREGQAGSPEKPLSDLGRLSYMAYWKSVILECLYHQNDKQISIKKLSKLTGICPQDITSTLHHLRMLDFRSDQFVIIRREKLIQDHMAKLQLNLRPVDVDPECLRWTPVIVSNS

Compound | IC50 [1] [µM] | IC50 [2] [µM]
Cc1cc(-c2ccccc2)cc(C(=O)Nc2cn[nH]c2)c1F [Compound I-213] | > 100 | > 100
Cc1cc(-c2ccccc2)cc(C(=O)N(C)NS(=O)(=O)c2ccccc2)c1F [Compound I-215] | 10 to 50 | > 100
Cc1c(-c2ccccc2)ccc(F)c1C(=O)NNS(=O)(=O)c1ccccc1Cl [Compound I-225] | 10 to 50 | 50 to 100
Cc1cc(-c2ccccc2)cc(C(=O)NNS(=O)(=O)CC2CCCCC2)c1F [Compound I-227] | ≤ 10 | ≤ 10
CCS(=O)(=O)NNC(=O)c1c(F)ccc(-c2ccccc2)c1C [Compound I-228] | > 100 | > 100
Cc1cccc(-c2cccc(C(=O)NNS(=O)(=O)c3ccccc3)c2F)c1 [Compound I-229] | 10 to 50 | 10 to 50
O=C(NNS(=O)(=O)c1ccccc1)c1cnn(Cc2ccccc2)c1 [Compound I-230] | > 100 | > 100
Cc1c(-c2ccccc2)ccc(F)c1C(=O)NNS(=O)(=O)C(C)C [Compound I-231] | > 100 | > 100
COc1cccc(S(=O)(=O)NNC(=O)c2cc(-c3ccccc3)cc(C)c2F)c1 [Compound I-232] | ≤ 10 | ≤ 10
O=C(NNS(=O)(=O)c1ccccc1)c1c(F)ccc(-c2ccccc2)c1F [Compound I-233] | ≤ 10 | 10 to 50
O=C(NNS(=O)(=O)c1ccccc1)c1cccc(-c2ccccc2)c1F [Compound I-234] | ≤ 10 | > 100
Cc1cc(-c2ccccc2)cc(C(=O)NNS(=O)(=O)c2cccc(O)c2)c1F [Compound I-235] | ≤ 10 | ≤ 10
O=C(NNS(=O)(=O)c1ccccc1)c1c(F)ccc2ccccc12 [Compound I-236] | > 100 | > 100
COc1ccccc1S(=O)(=O)NNC(=O)c1c(F)ccc(-c2ccccc2)c1C [Compound I-237] | 50 to 100 | > 100
Cc1cc(-c2ccccc2)cc(C(=O)NNS(=O)(=O)c2ccc(C(N)=O)cc2)c1F [Compound I-239] | ≤ 10 | ≤ 10
Cc1c(-c2ccccc2)ccc(F)c1C(=O)NNS(=O)(=O)c1ccc2ccccc2c1 [Compound I-240] | 10 to 50 | 10 to 50
Cc1c(-c2ccccc2)ccc(F)c1C(=O)NNS(=O)(=O)c1ccc(Cl)cc1 [Compound I-241] | 10 to 50 | 50 to 100

Results, then the molecule that gave them:

IC50 [1] [µM] | IC50 [2] [µM] | Compound
≤ 10 | ≤ 10 | Cc1cc(-c2ccccc2)cc(C(=O)NNS(=O)(=O)c2cccc(F)c2)c1F [Compound I-214]
≤ 10 | ≤ 10 | CCc1cc(-c2ccccc2)cc(C(=O)NNS(=O)(=O)c2ccccc2)c1F [Compound I-216]
≤ 10 | ≤ 10 | Cc1cc(-c2ccccc2)cc(C(=O)NNS(=O)(=O)c2ccc(Cl)cc2)c1F [Compound I-217]
≤ 10 | ≤ 10 | CNC(=O)c1cccc(S(=O)(=O)NNC(=O)c2cc(-c3ccccc3)cc(C)c2F)c1 [Compound I-219]
≤ 10 | ≤ 10 | O=C(NNS(=O)(=O)c1ccccc1)c1cc(-c2ccccc2)cc(Cl)c1F [Compound I-220]
≤ 10 | 10 to 50 | CCc1cccc(S(=O)(=O)NNC(=O)c2cc(-c3ccccc3)cc(C)c2F)c1 [Compound I-221]
≤ 10 | 50 to 100 | COc1ccc(Cn2cnc(-c3ccc(F)c(C(=O)NNS(=O)(=O)c4ccccc4)c3F)c2)cc1 [Compound I-222]
≤ 10 | ≤ 10 | Cc1cc(-c2ccccc2)c(F)c(C(=O)NNS(=O)(=O)c2ccccc2)c1F [Compound I-223]
≤ 10 | ≤ 10 | Cc1cc(-c2ccccc2)cc(C(=O)NNS(=O)(=O)CC2CCN(C(=O)OC(C)(C)C)CC2)c1F [Compound I-224]
≤ 10 | > 100 | Cc1cccc(S(=O)(=O)NNC(=O)c2cccc(-c3ccccc3)c2F)c1 [Compound I-226]
